Measured values: US11185074B2, “Microbiocidal quinoline (thio)carboxamide derivatives” (SYNGENTA PARTICIPATIONS AG, priority 2017, dated 2021)

Legend:
[1] = tested on: Glomerella lagenarium (Colletotrichum lagenarium); test: Glomerella lagenarium (Colletotrichum lagenarium) / liquid culture (anthracnose); format: cell-based; details: Colletotrichum orbiculare; 20 ppm; liquid culture, inhibition of growth photometrically 3-4 days after application; compared to untreated control; read-out: control of Glomerella lagenarium
[2] = tested on: Botryotinia fuckeliana (Botrytis cinerea); test: Botryotinia fuckeliana (Botrytis cinerea) / liquid culture (gray mould); format: cell-based; details: 72 h, 20 ppm, liquid culture, inhibition of growth photometrically 3-4 days after application, compared to untreated control, read-out: control of Botryotinia fuckeliana
Fusarium culmorum [3] = test: microbe, parasite or virus in culture; format: cell-based; details: read-out: control of Fusarium culmorum
[4] = tested on: Magnaporthe grisea (Pyricularia oryzae); test: microbe, parasite or virus in culture; format: cell-based; details: 72 h, read-out: control of Magnaporthe grisea
[5] = tested on: Monographella nivalis (Microdochium nivale); test: Monographella nivalis (Microdochium nivale) / liquid culture (foot rot cereals); format: cell-based; details: 96 h, inhibition of growth photometrically 4-5 days after application, compared to untreated control
Fusarium culmorum [6] = test: whole plant or invertebrate; format: in vivo, Fusarium culmorum on wheat spikelets cv. Monsun; details: in Triticum aestivum, read-out: control of Fusarium culmorum
[7] = tested on: Gibberella zeae (Fusarium graminearum); test: whole plant or invertebrate; format: in vivo; details: in Triticum aestivum, 144 h, read-out: control of Gibberella zeae
Sclerotinia sclerotiorum = Sclerotinia sclerotiorum / liquid culture (cottony rot); details: 72 h, read-out: control of Sclerotinia sclerotiorum
Description: Sclerotinia sclerotiorum/Liquid Culture (Cottony Rot)
Mycelia fragments of a newly grown liquid culture of the fungus are directly mixed into nutrient broth (Vogels broth). After placing a (DMSO) solution of test compound into a microtiter plate (96-well format) the nutrient broth containing the fungal material is added. The test plates are incubated at 24° C. and the inhibition of growth is determined photometrically 3-4 days after application.

[8] = tested on: Magnaporthe grisea (Pyricularia oryzae); test: whole plant or invertebrate; format: in vivo; details: foliar, read-out: control of Magnaporthe grisea

Structure (SMILES)	inhibition of growth at 20 ppm [1]	inhibition of growth at 20 ppm [2]	melting point	inhibition of growth at 20 ppm (Fusarium culmorum [3])	inhibition of growth at 20 ppm [4]	inhibition of growth at 20 ppm [5]	pest or weed control at 200 ppm (Fusarium culmorum [6])	pest or weed control at 200 ppm [7]	inhibition of growth at 20 ppm (Sclerotinia sclerotiorum)	pest or weed control at 200 ppm [8]
C=C(C)CC(C)(CC(=C)C)NC(=O)c1cnc2c(F)cccc2c1 [E-2, N-[1,3-dimethyl-1-(2-methylallyl)but-3-enyl]-8-fluoro-quinoline-3-carboxamide]	≥ 80%	≥ 80%	116 to 118 °C	≥ 80%	≥ 80%	≥ 80%	≥ 80%	≥ 80%		
CC(CC1CCCC1)(CC(F)(F)F)NC(=O)c1cnc2ccccc2c1 (centres unmarked) [E-63]	≥ 80%	≥ 80%	94 to 103 °C	≥ 80%	≥ 80%	≥ 80%	≥ 80%		≥ 80%	
CC(CC1CCCC1)(CC(F)(F)F)NC(=O)c1cnc2c(F)c(F)ccc2c1 (centres unmarked) [E-57]	≥ 80%	≥ 80%	115 to 116 °C	≥ 80%	≥ 80%	≥ 80%			≥ 80%	≥ 80%
CC(CC1CC=CCC1)(CC(F)(F)F)NC(=O)c1cnc2c(F)cccc2c1 (centres unmarked) [E-54]	≥ 80%	≥ 80%	115 to 118 °C	≥ 80%	≥ 80%	≥ 80%	≥ 80%		≥ 80%	
CC(C)CC(CC(C)C)NC(=O)c1cnc2c(F)cccc2c1 [E-9]	≥ 80%	≥ 80%	170 to 172 °C	≥ 80%	≥ 80%	≥ 80%	≥ 80%	≥ 80%		
C/C=C(\C)CC(C)(CC(C)C)NC(=O)c1cnc2c(F)cccc2c1 (centres unmarked) [E-5]	≥ 80%	≥ 80%		≥ 80%	≥ 80%	≥ 80%	≥ 80%	≥ 80%		
C[C@](CC1CCCC1)(CC(F)(F)F)NC(=O)c1cnc2c(F)cccc2c1 [F-5, N-[(1S)-1-(cyclopentylmeth-yl)-3,3,3-trifluoro-1-methyl-propyl]-8-fluoro-quinoline-3-carboxamide]	≥ 80%	≥ 80%	102 to 105 °C	≥ 80%	≥ 80%		≥ 80%		≥ 80%	
CC(CC1CCCCC1)(CC(F)(F)F)NC(=O)c1cnc2c(F)cccc2c1 (centres unmarked) [E-62]	≥ 80%	≥ 80%	55 to 76 °C	≥ 80%	≥ 80%	≥ 80%			≥ 80%	≥ 80%
CCCC(C)CC(C)(CC(F)(F)F)NC(=O)c1cnc2c(C)cccc2c1 (centres unmarked) [E-47]	≥ 80%	≥ 80%		≥ 80%	≥ 80%	≥ 80%	≥ 80%			≥ 80%
CC(C)=C(F)CC(C)(CC(C)C)NC(=O)c1cnc2c(F)cccc2c1 (centres unmarked) [E-6]	≥ 80%	≥ 80%	119 to 121 °C	≥ 80%	≥ 80%	≥ 80%	≥ 80%	≥ 80%		
CC1(C[C@](C)(CC(F)(F)F)NC(=O)c2cnc3c(F)cccc3c2)CC1 [F-1, 8-fluoro-N-[(1R)-3,3,3-trifluoro-1-methyl-1-[(1-methylcyclo-propyl)meth-yl]propyl] quinoline-3-carboxamide]	≥ 80%	≥ 80%		≥ 80%	≥ 80%	≥ 80%	≥ 80%	≥ 80%		
CCC(CC)CC(C)(CC(F)(F)F)NC(=O)c1cnc2c(F)cccc2c1 (centres unmarked) [E-45]	≥ 80%	≥ 80%		≥ 80%	≥ 80%	≥ 80%		≥ 80%		
CC(C)(CCc1cccc(C(F)(F)F)c1)NC(=O)c1cnc2c(F)cccc2c1 [E-27]	≥ 80%	≥ 80%		≥ 80%		≥ 80%				≥ 80%
C[C@@](CC1CCCC1)(CC(F)(F)F)NC(=O)c1cnc2c(F)cccc2c1 [F-4, N-[(1R)-1-(cyclopentylmeth-yl)-3,3,3-trifluoro-1-methyl-propyl]-8-fluoro-quinoline-3-carboxamide]	≥ 80%	≥ 80%	100 to 101 °C	≥ 80%	≥ 80%	≥ 80%			≥ 80%	≥ 80%
CC(C)(C)C(CCc1ccccc1)NC(=O)c1cnc2c(F)cccc2c1 (centres unmarked) [E-14]	≥ 80%	≥ 80%	55 to 65 °C	≥ 80%	≥ 80%	≥ 80%	≥ 80%	≥ 80%		
C=C(C)CC(C)(CC1CCCCC1)NC(=O)c1cnc2c(F)c(F)ccc2c1 (centres unmarked) [E-48]	≥ 80%	≥ 80%	115 to 117 °C	≥ 80%	≥ 80%	≥ 80%	≥ 80%		≥ 80%	
Cc1cccc2cc(C(=O)NC(C)(CC3CCCCC3)CC(F)(F)F)cnc12 (centres unmarked) [E-61]	≥ 80%	≥ 80%	107 to 110 °C	≥ 80%	≥ 80%	≥ 80%			≥ 80%	≥ 80%
C[C@](CC1CCCCC1)(CC(F)(F)F)NC(=O)c1cnc2c(F)cccc2c1 [F-3, N-[(1S)-1-(cyclohexylmeth-yl)-3,3,3-trifluoro-1-methyl-propyl]-8-fluoro-quinoline-3-carboxamide]	≥ 80%	≥ 80%	132 to 133 °C	≥ 80%	≥ 80%	≥ 80%			≥ 80%	≥ 80%
CC(C)(CCCc1ccccc1)NC(=O)c1cnc2c(F)cccc2c1 [E-23]	≥ 80%	≥ 80%		≥ 80%		≥ 80%	≥ 80%	≥ 80%		
Cc1cccc2cc(C(=O)NC(C)(CC3CCCC3)CC(F)(F)F)cnc12 (centres unmarked) [E-64]	≥ 80%	≥ 80%	108 to 116 °C	≥ 80%	≥ 80%	≥ 80%	≥ 80%		≥ 80%	
C=C(C)CC(C)(CC(=C)C)NC(=O)c1cnc2c(F)c(F)ccc2c1 [E-56]	≥ 80%	≥ 80%	117 to 120 °C	≥ 80%	≥ 80%	≥ 80%			≥ 80%	≥ 80%
CCCC(C)CC(C)(CC(F)(F)F)NC(=O)c1cnc2ccccc2c1 (centres unmarked) [E-46]	≥ 80%	≥ 80%		≥ 80%			≥ 80%	≥ 80%		
CC(C)=C(F)CC(CC(C)C)NC(=O)c1cnc2c(F)cccc2c1 (centres unmarked) [E-18]	≥ 80%	≥ 80%	75 to 76 °C	≥ 80%	≥ 80%	≥ 80%	≥ 80%	≥ 80%		
CCCC(C)CC(C)NC(=O)c1cnc2c(C)cccc2c1 (centres unmarked) [E-42]	≥ 80%	≥ 80%		≥ 80%		≥ 80%				≥ 80%
CC(C)(Cc1ccccc1)C(C)(C)NC(=O)c1cnc2c(F)cccc2c1 [E-21]		≥ 80%	131 to 132 °C	≥ 80%	≥ 80%	≥ 80%	≥ 80%	≥ 80%		
